Experimental data taken from publication PMC11423303, “Rational Design of Dual-Domain Binding Inhibitors for N-Acetylgalactosamine Transferase 2 with Improved Selectivity over the T1 and T3 Isoforms” (JACS Au, 2024).
Where two headings read alike, the source gives them in different places. Residues, ends and D or L forms follow the SMILES beside them. *: point of attachment. αGalNAc = CC(=O)N[C@@H]1[C@@H](O)[C@@H](O)[C@@H](CO)O[C@@H]1*; X2 = c1ccc2nc(C*)ccc2c1; X1 = c1csc(C*)c1

Key:
GalNAc-T2 [1] = system: GalNAc-T2; set-up: method as in PMID 29061849; details: read-out: IC50 against GalNAc-T2; cited from earlier work
GalNAc-T2 [2] = molecular target: T1, GalNAc-T2 (Homo sapiens, UniProt Q10471); experiment: Radiometric GalNAc-T2 inhibition assay with labeled UDP-GalNAc donor and MUC1a acceptor peptide; assay type: biochemical; details: for Relative inhibitory activity against GalNAc-T2: normalized concentration of 500 μM
T1 construct: made in house; host or cells: Pichia pastoris
Description: The glycosylation products were isolated from the radiolabeled donors through chromatographic techniques and analyzed by scintillation counting.
(§1) 347 4. BIOCHEMICAL STUDIES
(§2) 348 4.1. Reagents and substrates
(§3) 349 Stock solutions of inhibitor (5mM) and MUC1a substrate (4mM) were prepared from
(§4) 350 lyophilized powders. Additional serial dilutions of inhibitor were prepared of 1 mM, 200 µM, 50
(§5) 351 µM, 10 µM, and 2 µM and the MUC1a substrate of 62.5 µM. Fully N-acetylated UDP-
(§6) 352 [ 3H]GalNAc was obtained from American Radiolabeled Chemicals Inc (St. Louis, MO) whereas
(§7) 353 nonlabelled UDP-GalNAc was obtained from Millipore-Sigma (St. Louis, MO). A 0.2 mM stock
(§8) 354 solution of radiolabeled UDP-GalNAc was prepared by adding UDP-[ 3H]GalNAc to unlabeled
(§9) 355 UDP-GalNAc to give ~6 x 10^8 DPM/µmole. ScintiVerse BD Cocktail fluid was obtained from
(§10) 356 Fisher Scientific (Pittsburgh, PA). Liquid scintillation counting was performed on a Beckman
(§11) 357 LS 6500 Scintillation Counter. BioPureSPN TARGA C18 macro spin columns were obtained
(§12) 358 from The Nest Group Inc. (Ipswich, MA).
(§13) 360 4.2. GalNAc-Ts expression
(§14) 361 Human GalNAc-T1 was a gift of Kelley Moremen (CCRC, University of Georgia) and
(§15) 362 expressed in HEK293F cells. Human GalNAc-T2, and -T3 were obtained from Ramon
363 Hertado-Guerrero (University of Zaragosa, SP) and expressed in Pichia pastoris.
366 The glycomimetic inhibitors were optimized using GalNAc-T2 activity assays as previously
367 described. The reactions were carried out in a total volume of 50 µl, containing 100 nM
369 cpm/nm) as the sugar donor. The designed glycomimetics were tested at a range of
371 conducted in 25 mM cacodylate buffer (pH 7.4) with 10 mM MnCl 2 and 0.25% Triton X-100,
372 and incubated at 22°C for 30 minutes. Excess UDP-[ 14C]GalNAc was removed from the
373 glycosylated peptide using DOWEX 1 chromatography, the product was subsequently
374 analyzed through scintillation counting.
377 protocol was used except UDP-[ 3H]GalNAc was utilized and the products isolated on Targa
378 C18 spin columns as previously described. Final enzyme concentrations were 100 nM for
379 GalNAc-T1 and -T3 and 200 nM for GalNAc-T2 while final MUC1a substrate and inhibitor 5
380 concentrations were as above. Reactions were incubated at 22°C for 30min for GalNAc-T1
381 and -T3 and 3h for GalNAc-T2. After incubation, reactions were quenched with 200µL of 0.5%
382 TFA in H 2O and passed through the spin columns. Columns were extensively washed with
383 0.1% TFA/H 2O and glycopeptide products eluted with 0.1% TFA in 50/50 acetonitrile/H2O
384 followed by 100% acetonitrile. The different eluates were analyzed by scintillation counting on
385 a Beckman LS 6500 Scintillation Counter. Relative percent peptide glycosylation was
386 calculated from the obtained 3H DPM as described in Ballard et al 2023. Reactions were
387 repeated twice for each transferase. After subtracting the no substrate blank, under these
390 Percent activity was plotted against the log concentration of inhibitor 19 in µM. […]

GalNAc-T1 [3] = molecular target: T2, GalNAc-T1 (Homo sapiens, UniProt Q10472); experiment: Radiometric GalNAc-T1 inhibition assay with UDP-[3H]GalNAc and MUC1a acceptor peptide; assay type: biochemical
T2 construct: made in house; host or cells: HEK293F cells (gift of Kelley Moremen, CCRC, University of Georgia)
T2 sequence (Q10472 1-559): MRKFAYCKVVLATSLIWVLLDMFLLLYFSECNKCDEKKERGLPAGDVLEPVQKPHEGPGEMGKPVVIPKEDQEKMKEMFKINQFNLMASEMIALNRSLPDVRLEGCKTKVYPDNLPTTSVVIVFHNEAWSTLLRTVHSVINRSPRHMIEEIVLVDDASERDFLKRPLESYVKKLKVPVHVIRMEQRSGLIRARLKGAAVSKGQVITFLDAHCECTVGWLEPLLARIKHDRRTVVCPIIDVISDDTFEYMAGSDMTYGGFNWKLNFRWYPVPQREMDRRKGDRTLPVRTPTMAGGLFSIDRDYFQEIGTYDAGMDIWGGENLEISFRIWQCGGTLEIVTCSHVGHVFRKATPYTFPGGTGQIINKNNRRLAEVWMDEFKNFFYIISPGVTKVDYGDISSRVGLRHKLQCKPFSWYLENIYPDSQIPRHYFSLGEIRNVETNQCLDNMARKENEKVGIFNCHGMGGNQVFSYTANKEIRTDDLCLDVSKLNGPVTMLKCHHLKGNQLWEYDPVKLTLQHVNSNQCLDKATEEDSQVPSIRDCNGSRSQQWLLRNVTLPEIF
Description: as §1, §2, §3, §4, §5, §6, §7, §8, §9, §10, §11, §12, §13, §14, §15
(§16) 363 Hertado-Guerrero (University of Zaragosa, SP) and expressed in Pichia pastoris. […]
367 described. […]
(§17) 384 followed by 100% acetonitrile. The different eluates were analyzed by scintillation counting on […]
(§18) 386 calculated from the obtained 3H DPM as described in Ballard et al 2023. […]

GalNAc-T3 [4] = molecular target: T3, GalNAc-T3 (Homo sapiens, UniProt Q14435); experiment: Radiometric GalNAc-T3 inhibition assay with UDP-[3H]GalNAc and MUC1a acceptor peptide; assay type: biochemical
T3 construct: made in house; host or cells: Pichia pastoris
T3 sequence (Q14435 1-633): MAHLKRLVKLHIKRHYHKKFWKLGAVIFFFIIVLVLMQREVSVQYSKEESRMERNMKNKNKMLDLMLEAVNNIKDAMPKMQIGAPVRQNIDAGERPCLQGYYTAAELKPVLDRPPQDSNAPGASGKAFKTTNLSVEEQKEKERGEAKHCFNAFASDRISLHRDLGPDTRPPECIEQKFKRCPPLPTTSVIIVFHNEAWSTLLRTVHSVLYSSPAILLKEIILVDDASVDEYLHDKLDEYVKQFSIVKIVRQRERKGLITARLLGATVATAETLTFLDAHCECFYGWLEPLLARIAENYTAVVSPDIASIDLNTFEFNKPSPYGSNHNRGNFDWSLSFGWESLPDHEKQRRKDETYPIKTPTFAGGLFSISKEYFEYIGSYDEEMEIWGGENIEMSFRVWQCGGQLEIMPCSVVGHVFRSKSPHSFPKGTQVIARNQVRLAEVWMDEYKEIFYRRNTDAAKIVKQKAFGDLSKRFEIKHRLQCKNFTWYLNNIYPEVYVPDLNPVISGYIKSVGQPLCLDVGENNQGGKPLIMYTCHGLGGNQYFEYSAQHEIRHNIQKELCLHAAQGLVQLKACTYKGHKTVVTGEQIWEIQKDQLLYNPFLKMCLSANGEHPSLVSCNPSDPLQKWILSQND
Description: as §1, §2, §3, §4, §5, §6, §7, §8, §9, §10, §11, §12, §13, §14, §15, §16, §17, §18

GalNAc-T1 [5] = system: GalNAc-T1; set-up: method as in Wandall H. H. et al., [16]; details: ref Wandall H. H. et al., [16], cited from earlier work
GalNAc-T2 [6] = system: GalNAc-T2; set-up: method as in Wandall H. H. et al., [16]; details: ref Wandall H. H. et al., [16], cited from earlier work
GalNAc-T3 [7] = system: GalNAc-T3; set-up: method as in Wandall H. H. et al., [16]; details: ref Wandall H. H. et al., [16], cited from earlier work
GalNAc-T3 [8] = system: GalNAc-T3; set-up: method as in PMID 28362263; details: cited from earlier work
GalNAc-T2 [9] = system: GalNAc-T2; set-up: method as in PMID 28362263; details: cited from earlier work
GalNAc-T6 = system: GalNAc-T6; set-up: method as in PMID 28362263; details: cited from earlier work
FGF23 levels = system: FGF23 levels; set-up: method as in PMID 28362263; details: chronic kidney disease treatment; cited from earlier work
[10] = calculated from IC50 by Cheng & Prusoff equation, MUC1a and UDP-GalNAc substrates

T1 sequence (Q10471 whole entry): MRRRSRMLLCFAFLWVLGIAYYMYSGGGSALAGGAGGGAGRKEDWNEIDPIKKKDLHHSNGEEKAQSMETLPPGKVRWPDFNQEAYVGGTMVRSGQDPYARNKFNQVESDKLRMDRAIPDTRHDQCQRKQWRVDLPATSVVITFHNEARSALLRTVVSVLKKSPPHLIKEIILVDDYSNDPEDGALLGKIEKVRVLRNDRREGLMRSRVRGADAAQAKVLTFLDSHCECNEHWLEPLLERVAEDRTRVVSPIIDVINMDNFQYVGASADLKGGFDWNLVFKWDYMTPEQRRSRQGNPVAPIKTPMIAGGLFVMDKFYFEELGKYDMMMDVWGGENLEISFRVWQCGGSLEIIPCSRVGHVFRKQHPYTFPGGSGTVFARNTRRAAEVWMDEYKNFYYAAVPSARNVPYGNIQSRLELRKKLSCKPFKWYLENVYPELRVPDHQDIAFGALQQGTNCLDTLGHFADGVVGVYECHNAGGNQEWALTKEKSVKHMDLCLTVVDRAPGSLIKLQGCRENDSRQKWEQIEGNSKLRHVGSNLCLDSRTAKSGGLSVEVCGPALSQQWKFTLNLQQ

Compound: O=c1cc(-c2ccc(O)c(O)c2)oc2cc(O)cc(O)c12 [luteolin]
- IC50 (GalNAc-T2 [1]): 14.7 µM

Compound: CC(=O)N[C@H]1[C@@H](O[C@H](C)[C@H](NC(=O)[C@H](C)NC(=O)[C@H](C)NC(=O)[C@@H](NC(=O)[C@H](CC(C)C)NC(=O)[C@@H]2CCCN2C(=O)[C@H](CC(C)C)NC(=O)[C@@H]2CCCN2C(=O)[C@H](CSCc2cccs2)NC(=O)[C@@H]2CCCN2)C(C)C)C(=O)N[C@@H](C)C(=O)N[C@@H](C)C(N)=O)O[C@H](CO)[C@H](O)[C@@H]1O [Compound 19] (H-PC(X1)PLPLVAAT(αGalNAc)AA-NH2)
- IC50 (GalNAc-T2 [2]): 21.4 ± 4.1 µM
- IC50 (GalNAc-T1 [3]; MUC1a as acceptor substrate, read-out: IC50 against GalNAc-T1): 678 ± 197 µM
- Ki (GalNAc-T1 [3]; [10]): 668 µM
- IC50 (GalNAc-T3 [4]; MUC1a as acceptor substrate, read-out: IC50 against GalNAc-T3): 171 ± 62.2 µM
- Ki (GalNAc-T3 [4]; [10]): 154 µM

Compound: CC(=O)N[C@H]1[C@@H](O[C@H](C)[C@H](NC(=O)[C@H](C)NC(=O)[C@H](C)NC(=O)[C@H](C)NC(=O)[C@H](C)NC(=O)[C@@H]2CCCN2C(=O)[C@@H](NC(=O)[C@@H]2CCCN2C(=O)[C@H](CSCc2cccs2)NC(=O)[C@@H]2CCCN2C(=O)[C@H](C)NC(=O)[C@H](C)NC(=O)CN)C(C)C)C(=O)N[C@@H](C)C(=O)N[C@@H](C)C(N)=O)O[C@H](CO)[C@H](O)[C@@H]1O [Compound 3] (H-GAAPC(X1)PVPAAAAT(αGalNAc)AA-NH2)
- IC50 (GalNAc-T2 [2]): 84.5 ± 25.9 µM

Compound: CC(=O)N[C@H]1[C@@H](OP(=O)(O)OP(=O)(O)OC[C@H]2O[C@@H](n3ccc(=O)[nH]c3=O)[C@H](O)[C@@H]2O)O[C@H](CO)[C@H](O)[C@@H]1O [UDP-GalNAc, uridine diphosphate-GalNAc]
- Km (GalNAc-T1 [5]; read-out: Km(UDP-GalNAc) GalNAc-T1): 62 µM
- Km (GalNAc-T2 [6]; read-out: Km(UDP-GalNAc) GalNAc-T2): 10 µM
- Km (GalNAc-T3 [7]; read-out: Km(UDP-GalNAc) GalNAc-T3): 29 µM

Compound: O=C(Nc1ccc(Nc2ccncc2)cc1)c1ccc(Nc2ccnc3ccc([N+](=O)[O-])cc23)cc1 [T3Inh-1]
- Activity against GalNAc-T3 (GalNAc-T3 [8]): can act against GalNAc-T3
- Activity against T2 variant (GalNAc-T2 [9]): no activity
- Activity against T6 variant (GalNAc-T6): no activity
- FGF23 levels in mice (FGF23 levels): lower the FGF23 levels

Compound: OCc1cccs1 [Compound 5, 2-thiophenemethanol]
- Relative inhibitory activity against GalNAc-T2 (GalNAc-T2 [2]; MUC1a as acceptor substrate): unable to inhibit the enzyme

Compound: CC(=O)N[C@H]1[C@@H](O[C@H](C)[C@H](NC(=O)[C@H](C)NC(=O)[C@H](C)NC(=O)[C@H](C)NC(=O)[C@H](C)NC(=O)[C@@H]2CCCN2C(=O)[C@H](Cc2c[nH]c3ccccc23)NC(=O)[C@@H]2CCCN2C(=O)[C@H](CSCc2cccs2)NC(=O)[C@@H]2CCCN2)C(=O)N[C@@H](C)C(=O)N[C@@H](C)C(N)=O)O[C@H](CO)[C@H](O)[C@@H]1O [Compound 18] (H-PC(X1)PWPAAAAT(αGalNAc)AA-NH2)
- IC50 (GalNAc-T2 [2]; MUC1a as acceptor substrate, read-out: IC50 against GalNAc-T2): 55.7 ± 31.5 µM

Compound: thiophene [Compound 15]
- Relative inhibitory activity against GalNAc-T2 (GalNAc-T2 [2]; MUC1a as acceptor substrate): unable to inhibit the enzyme

Compound: MUC1a: model peptide acceptor substrate with sequence AHGVTSAPDTR
- Km (GalNAc-T1 [5]; read-out: Km(MUC1a) GalNAc-T1): 660 µM
- Km (GalNAc-T2 [6]; read-out: Km(MUC1a) GalNAc-T2): 2130 µM
- Km (GalNAc-T3 [7]; read-out: Km(MUC1a) GalNAc-T3): 90 µM

Compound: CC(=O)N[C@H]1[C@@H](O[C@H](C)[C@H](NC(=O)[C@H](C)NC(=O)[C@H](C)NC(=O)[C@H](C)NC(=O)[C@H](C)NC(=O)[C@@H]2CCCN2C(=O)[C@@H](NC(=O)[C@@H]2CCCN2C(=O)[C@H](CSCc2ccc3ccccc3n2)NC(=O)[C@@H]2CCCN2C(=O)[C@H](C)NC(=O)[C@H](C)NC(=O)CN)C(C)C)C(=O)N[C@@H](C)C(=O)N[C@@H](C)C(N)=O)O[C@H](CO)[C@H](O)[C@@H]1O [Compound 2] (H-GAAPC(X2)PVPAAAAT(αGalNAc)AA-NH2)
- IC50 (GalNAc-T2 [2]): 396 ± 172 µM

Compound: N[C@@H](CSCc1cccs1)C(=O)O [Compound 16]
- Relative inhibitory activity against GalNAc-T2 (GalNAc-T2 [2]; MUC1a as acceptor substrate): unable to inhibit the enzyme
